Values quoted from earlier work, collected in patent US20220226232A1, “Dental formulation comprising xylitol and propolis” (SERVIDENCE INC., priority 2021, published 2022).

Conditions: oral exposition

For OC[C@@H](O)[C@H](O)[C@@H](O)CO [xylitol], the prevention of otitis is listed as 20%.
